Assay results from ChEMBL document CHEMBL5036363, “Discovery and Lead Optimization of Benzene-1,4-disulfonamides as Oxidative Phosphorylation Inhibitors” (J Med Chem, 2022).

Legend:
Type in all cases: functional, cell-based
[1] = system: MIA PaCa-2; test: Cytotoxicity against human MIA PaCa-2 cells assessed as inhibition of cell growth incubated for 3 days in galactose-containing medium by MTT assay; details: MIA PaCa-2, 72 h
[2] = system: BXPC-3; test: Cytotoxicity against human BXPC-3 cells assessed as inhibition of cell growth incubated for 7 days in glucose-containing medium by MTT assay; details: BXPC-3, 168 h
[3] = system: MIA PaCa-2; test: Cytotoxicity against human MIA PaCa-2 cells assessed as inhibition of cell growth incubated for 7 days in glucose-containing medium by MTT assay; details: MIA PaCa-2, 168 h
[4] = system: MIA PaCa-2; test: Cytotoxicity against human MIA PaCa-2 cells assessed as inhibition of cell growth incubated for 3 days in glucose-containing medium by MTT assay; details: MIA PaCa-2, 72 h

SMILES | IC50 [1] [µM] | IC50 [2] [µM] | IC50 [3] [nM] | IC50 [4] [nM]
CCOC(=O)[C@@H]1CCCN(S(=O)(=O)c2cccc(S(=O)(=O)N(CC)CC)c2)C1 | > 10 | > 30 | > 30000 | > 10000
CCN(CC)S(=O)(=O)c1ccc(S(=O)(=O)N2CCC[C@@H](C(=O)NC3CC3)C2)cc1 | > 10 |  | 4600 | 1100
CCOC(=O)[C@@H]1CCCN(S(=O)(=O)c2ccc(C(=O)N(CC)CC)cc2)C1 | > 10 | 0.64 | 800 | 100
CCN(CC)S(=O)(=O)c1ccc(S(=O)(=O)N2CCC[C@@H](C(=O)N(C)C(C)C)C2)cc1 | > 10 | 7.7 | 6200 | 1400
CCOC(=O)[C@@H]1CCCN(S(=O)(=O)c2ccc(S(=O)(=O)N(C)C)cc2)C1 | > 10 | 1 | 900 | 300
CCN(CC)S(=O)(=O)c1ccc(S(=O)(=O)N2CCC[C@@H](C(=O)N3CCN(C(=O)OC(C)(C)C)CC3)C2)cc1 | > 10 | 0.2 | 70 | 10
CCOC(=O)[C@@H]1CCCN(S(=O)(=O)c2ccc(S(=O)(=O)N3CCNCC3)cc2)C1 |  | > 30 | > 30000 | 
CCOC(=O)[C@@H]1C[C@H](O)CN(S(=O)(=O)c2ccc(S(=O)(=O)N(CC)CC)cc2)C1 (relative stereo) | > 10 | 3.3 | 1300 | 300
CCOC(=O)[C@@H]1CCCN(S(=O)(=O)c2ccc(S(=O)(=O)N(CC)CC)cc2C)C1 | > 10 | 5.6 | 5100 | 1200
CCN(CC)S(=O)(=O)c1ccc(S(=O)(=O)N2CCC[C@@H](C(=O)NC)C2)cc1 | > 10 | 13.8 | 8600 | 2000
CCOC(=O)[C@H]1CCN(S(=O)(=O)c2ccc(S(=O)(=O)N(CC)CC)cc2)C1 | > 10 | 29.3 | 29200 | > 10000
CC(C)c1noc(N2CCN(C(=O)[C@@H]3CCCN(S(=O)(=O)c4ccc(S(=O)(=O)NC5CC5)cc4)C3)CC2)n1 | > 10 | 6.7 | 1000 | 300
CCOC(=O)[C@@H]1CCCN(S(=O)(=O)c2ccc(S(=O)(=O)N(CC)CC)cn2)C1 | > 10 | 1.4 | 1300 | 300
CCN(CC)S(=O)(=O)c1ccc(S(=O)(=O)N2CCC[C@@H](C(=O)NC3CN(C(=O)C4CC4)C3)C2)cc1 | > 10 | 18.5 | 2800 | 3100
CCN(CC)S(=O)(=O)c1ccc(S(=O)(=O)N2CCC[C@@H](C(=O)N3CCC(c4nc(C(C)C)no4)CC3)C2)cc1 | > 10 | 0.3 | 40 | 30
CC(C)c1noc(N2CCN(C(=O)[C@@H]3CCCN(S(=O)(=O)c4ccc(S(=O)(=O)NC5CCC5)cc4)C3)CC2)n1 | > 10 | 3.3 | 600 | 200
CCN(CC)S(=O)(=O)c1ccc(S(=O)(=O)N2CCC[C@@H](C(=O)N3CCN(c4nc(C)no4)CC3)C2)cc1 | > 10 |  | 250 | 200
CCOC(=O)C1CCN(S(=O)(=O)c2ccc(S(=O)(=O)N(CC)CC)cc2)CC1 |  | 23.1 | 27200 | 
CCOC(=O)[C@@H]1C[C@@H](O)CN(S(=O)(=O)c2ccc(S(=O)(=O)N(CC)CC)cc2)C1 (relative stereo) | > 10 | 10.8 | 7900 | 2100
CCOC(=O)[C@@H]1CCCN(S(=O)(=O)c2ccc(S(=O)(=O)N3CCCCC3)cc2)C1 | > 10 | 3.3 | 2900 | 1000
CCOC(=O)C12CC(CN(S(=O)(=O)c3ccc(S(=O)(=O)N(CC)CC)cc3)C1)C2 | > 10 | 1.2 | 1000 | 400
CCOC(=O)[C@@H]1CCCN(S(=O)(=O)c2ccc3cc(S(=O)(=O)N(CC)CC)ccc3c2)C1 | > 10 | 13.4 | 7400 | > 3000
CCOC(=O)[C@@H]1CCC[C@@H](S(=O)(=O)c2ccc(S(=O)(=O)N(CC)CC)cc2)C1 (relative stereo) | > 10 | 18.5 | 16400 | 5000
CCN(CC)S(=O)(=O)c1ccc(S(=O)(=O)N2CCC[C@@H](C(=O)N3CC4(CCN(C(=O)OC(C)(C)C)C4)C3)C2)cc1 | > 10 | 0.9 | 190 | 1300
CCN(CC)S(=O)(=O)c1ccc(S(=O)(=O)N2CCC[C@@H](C(=O)NC3CN(C(=O)OC(C)(C)C)C3)C2)cc1 | > 10 | 1.8 | 200 | 100
CCOC(=O)C1CN(S(=O)(=O)c2ccc(S(=O)(=O)N(CC)CC)cc2)C1 | > 10 | 12.7 | 13900 | 800

SMILES | IC50 [1] [µM] | IC50 [2] [µM] | IC50 [3] [nM] | IC50 [4] [nM]
CCN(CC)S(=O)(=O)c1ccc(S(=O)(=O)N2CCC[C@@H](C(=O)N3CCN(c4nnc(C(C)C)o4)CC3)C2)cc1 | > 10 |  | 1800 | 1000
CCN(CC)S(=O)(=O)c1ccc(S(=O)(=O)N2CCC[C@@H](C(=O)N3CCN(c4nc(C(F)(F)F)no4)CC3)C2)cc1 | > 10 |  | 600 | 60
CCNS(=O)(=O)c1ccc(S(=O)(=O)N2CCC[C@@H](C(=O)N3CCN(c4nc(C(C)C)no4)CC3)C2)cc1 | > 10 | 6.9 | 3300 | 200
CCN(CC)S(=O)(=O)c1ccc(S(=O)(=O)N2CCC[C@@H](C(=O)N[C@@H]3CCN(C(=O)OC(C)(C)C)C3)C2)cc1 | > 10 | 0.4 | 200 | 500
CCOC(=O)[C@@H]1CCCN(S(=O)(=O)c2ccc(S(=O)(=O)N(CC)C(C)C)cc2)C1 | > 10 | 1.6 | 1000 | 1200
CC(C)c1noc(N2CCN(C(=O)[C@@H]3CCCN(S(=O)(=O)c4ccc(S(=O)(=O)NC(C)(C)C)cc4)C3)CC2)n1 | > 10 | 2.6 | 300 | 100
CCOC(=O)[C@@H]1CCCN(S(=N)(=O)c2ccc(S(=O)(=O)N(CC)CC)cc2)C1 (stereo partly drawn) | > 10 | 13.3 | 12100 | 4700
CCCN(CC)S(=O)(=O)c1ccc(S(=O)(=O)N2CCC[C@@H](C(=O)OCC)C2)cc1 |  | 0.3 | 300 | 
CCOC(=O)N1CCC[C@H](S(=O)(=O)c2ccc(S(=O)(=O)N(CC)CC)cc2)C1 | > 10 | > 30 | > 30000 | > 10000
CCOC(=O)[C@@H]1CCCN(S(=O)(=O)c2ccc(S(=N)(=O)N(CC)CC)cc2)C1 (stereo partly drawn) | > 10 | 3.6 | 2600 | 900
CCN(CC)C(=O)[C@@H]1CCCN(S(=O)(=O)c2ccc(S(=O)(=O)N(CC)CC)cc2)C1 | > 10 | 10.5 | 6400 | 700
CCOC(=O)C1CCCCN1S(=O)(=O)c1ccc(S(=O)(=O)N(CC)CC)cc1 (stereo not drawn) | > 10 | 12.9 | 24600 | > 3000
CCOC(=O)[C@@H]1CCCN(S(=O)(=O)c2ccc(S(=O)(=O)N(CC)CC)nc2)C1 | > 10 | 8 | 5600 | 1600
CCN(CC)S(=O)(=O)c1ccc(S(=O)(=O)N2CCC[C@@H](C(=O)NC3CN(S(C)(=O)=O)C3)C2)cc1 |  | 7.4 | 2500 | 
CCOC(=O)[C@@H]1CCC[C@H](S(=O)(=O)c2ccc(S(=O)(=O)N(CC)CC)cc2)C1 (relative stereo) | > 10 | 25.2 | 21500 | > 10000
CCN(CC)S(=O)(=O)c1ccc(S(=O)(=O)N2CCC[C@@H](C(=O)N3CC4(CN(C(=O)OC(C)(C)C)C4)C3)C2)cc1 | > 10 | 1.1 | 400 | 300
CCN(CC)S(=O)(=O)c1ccc(S(=O)(=O)N2CCC[C@@H](C(=O)NC3CN(C(=O)NC(C)(C)C)C3)C2)cc1 | > 10 | 10.1 | 3400 | 1400
CCOC(=O)[C@@H]1CCCN(S(=O)(=O)c2ccc(S(=O)(=O)N(CC)CC)c(F)c2)C1 | > 10 | 1.6 | 900 | 200
CCOC(=O)[C@@H]1CCCN(C(=O)c2ccc(S(=O)(=O)N(CC)CC)cc2)C1 | > 10 | > 10 | > 10000 | > 3000
CCN(CC)S(=O)(=O)c1ccc(S(=O)(=O)N2CCC[C@@H](C(=O)NC3CCN(C(=O)OC(C)(C)C)CC3)C2)cc1 |  | 0.3 | 100 | 
CCOC(=O)[C@@H]1CCCN(S(=O)(=O)c2ccc(S(=O)(=O)N(C)Cc3ccccc3)cc2)C1 |  | > 30 | > 30000 | 
CCN(CC)S(=O)(=O)c1ccc(S(=O)(=O)N2CCC[C@@H](c3nc(C)no3)C2)cc1 | > 10 | 2.9 | 4100 | 700
CCN(CC)S(=O)(=O)c1ccc(S(=O)(=O)N2CCC[C@@H](C(=O)N[C@H]3CCN(C(=O)OC(C)(C)C)C3)C2)cc1 | > 10 | 0.3 | 100 | 170
CCOC(=O)[C@@H]1CCCN(S(=O)(=O)c2ccc(S(=O)(=O)N3CCOCC3)cc2)C1 | > 10 | 23.4 | 23500 | 4100
CCN(CC)S(=O)(=O)c1ccc(S(=O)(=O)N2CCC[C@@H](c3cc(C)no3)C2)cc1 | > 10 | 7.7 | 4900 | 2700
